Laboratory results as given in ChEMBL document CHEMBL1126978, “Assessment of the biological value of the 11-hydroxy group of the azalides” (1993).
In brackets after ≈: the same amount, converted by molar mass.

Legend:
Type in all cases: functional
Streptococcus pyogenes [1] = test: Tested in vitro for antimicrobial activity against Streptococcus pyogenes MB 2874; value ranges from 0.03-0.06 ug/mL
Streptococcus pyogenes [2] = test: Tested in vitro for antimicrobial activity against inducibly macrolide resistant Streptococcus pyogenes MB 5406; value ranges from 16-32 ug/mL
[3] = system: Staphylococcus haemolyticus; test: Tested in vitro for antimicrobial activity against Staphylococcus haemolyticus MB 5412; value ranges from 0.25-0.5 ug/mL
Streptococcus pyogenes [4] = test: Tested in vitro for antimicrobial activity against constitutively macrolide resistant Streptococcus pyogenes MB 5403
Staphylococcus aureus [5] = test: Tested in vitro for antimicrobial activity against Staphylococcus aureus MB 2865
Escherichia coli [6] = test: Tested in vitro for antimicrobial activity against Escherichia coli MB 2884
Klebsiella pneumoniae [7] = test: Tested in vitro for antimicrobial activity against Klebsiella pneumoniae MB 4005; value ranges from 2-4 ug/mL
Enterococcus faecalis [8] = test: Tested in vitro for antimicrobial activity against Enterococcus faecalis MB 5407; value ranges from 4-8 ug/mL
Enterobacter cloacae [9] = test: Tested in vitro for antimicrobial activity against Enterobacter cloacae CL 4298
Haemophilus influenzae [10] = test: Tested in vitro for antimicrobial activity against Haemophilus influenzae MB 5363; value ranges from 4-8 ug/mL
[11] = system: Staphylococcus haemolyticus; test: Tested in vitro for antimicrobial activity against Staphylococcus haemolyticus MB 5412; value ranges from 8-32 ug/mL
Streptococcus pyogenes [12] = test: Tested in vitro for antimicrobial activity against Streptococcus pyogenes MB 2874; value ranges from 1-4 ug/mL
Haemophilus influenzae [13] = test: Tested in vitro for antimicrobial activity against Haemophilus influenzae MB 5363; value ranges from 32->128 ug/mL
Klebsiella pneumoniae [14] = test: Tested in vitro for antimicrobial activity against Klebsiella pneumoniae MB 4005; value ranges from 64->128 ug/mL
Escherichia coli [15] = test: Tested in vitro for antimicrobial activity against Escherichia coli MB 2884; value ranges from 64->128 ug/mL
Enterobacter cloacae [16] = test: Tested in vitro for antimicrobial activity against Enterobacter cloacae CL 4298; value ranges from 64->128 ug/mL
Staphylococcus aureus [17] = test: Tested in vitro for antimicrobial activity against Staphylococcus aureus MB 2865; value ranges from 16-64 ug/mL
Streptococcus pyogenes [18] = test: Tested in vitro for antimicrobial activity against inducibly macrolide resistant Streptococcus pyogenes MB 5406
Enterococcus faecalis [19] = test: Tested in vitro for antimicrobial activity against Enterococcus faecalis MB 5407; value ranges from 64-128 ug/mL
Haemophilus influenzae [20] = test: Tested in vitro for antimicrobial activity against Haemophilus influenzae MB 5363; value ranges from 2-4 ug/mL
Enterobacter cloacae [21] = test: Tested in vitro for antimicrobial activity against Enterobacter cloacae CL 4298; value ranges from 2-4 ug/mL
Escherichia coli [22] = test: Tested in vitro for antimicrobial activity against Escherichia coli MB 2884; value ranges from 2-4 ug/mL
Staphylococcus aureus [23] = test: Tested in vitro for antimicrobial activity against Staphylococcus aureus MB 2865; value ranges from 0.25-1 ug/mL
[24] = system: Staphylococcus haemolyticus; test: Tested in vitro for antimicrobial activity against Staphylococcus haemolyticus MB 5412; value ranges from 0.125-0.25 ug/mL
Streptococcus pyogenes [25] = test: Tested in vitro for antimicrobial activity against inducibly macrolide resistant Streptococcus pyogenes MB 5406; value ranges from 8-16 ug/mL
Enterococcus faecalis [26] = test: Tested in vitro for antimicrobial activity against Enterococcus faecalis MB 5407; value ranges from 2-4 ug/mL
Escherichia coli [27] = test: Tested in vitro for antimicrobial activity against Escherichia coli MB 2884; value ranges from 1-2 ug/mL
Enterobacter cloacae [28] = test: Tested in vitro for antimicrobial activity against Enterobacter cloacae CL 4298; value ranges from 0.5-2 ug/mL
Staphylococcus aureus [29] = test: Tested in vitro for antimicrobial activity against Staphylococcus aureus MB 2865; value ranges from 0.5-1 ug/mL
Klebsiella pneumoniae [30] = test: Tested in vitro for antimicrobial activity against Klebsiella pneumoniae MB 4005; value ranges from 1-2 ug/mL
Haemophilus influenzae [31] = test: Tested in vitro for antimicrobial activity against Haemophilus influenzae MB 5363; value ranges from 1-4 ug/mL
Staphylococcus aureus [32] = test: Tested in vitro for antimicrobial activity against Staphylococcus aureus MB 2865; value ranges from 2-4 ug/mL
Enterobacter cloacae [33] = test: Tested in vitro for antimicrobial activity against Enterobacter cloacae CL 4298; value ranges from 4-8 ug/mL
[34] = system: Staphylococcus haemolyticus; test: Tested in vitro for antimicrobial activity against Staphylococcus haemolyticus MB 5412; value ranges from 0.5-1 ug/mL
Klebsiella pneumoniae [35] = test: Tested in vitro for antimicrobial activity against Klebsiella pneumoniae MB 4005
Escherichia coli [36] = test: Tested in vitro for antimicrobial activity against Escherichia coli MB 2884; value ranges from 8-16 ug/mL
Staphylococcus aureus [37] = test: Tested in vitro for antimicrobial activity against Staphylococcus aureus MB 2865; value ranges from 0.25-0.5 ug/mL
[38] = system: Staphylococcus haemolyticus; test: Tested in vitro for antimicrobial activity against Staphylococcus haemolyticus MB 5412
Enterococcus faecalis [39] = test: Tested in vitro for antimicrobial activity against Enterococcus faecalis MB 5407; value ranges from 1-2 ug/mL
Escherichia coli [40] = test: Tested in vitro for antimicrobial activity against Escherichia coli MB 2884; value ranges from 32-64 ug/mL
Enterobacter cloacae [41] = test: Tested in vitro for antimicrobial activity against Enterobacter cloacae CL 4298; value ranges from 32-64 ug/mL
Klebsiella pneumoniae [42] = test: Tested in vitro for antimicrobial activity against Klebsiella pneumoniae MB 4005; value ranges from 32-64 ug/mL

CC[C@H]1OC(=O)[C@H](C)[C@@H](O[C@H]2C[C@@](C)(OC)[C@@H](O)[C@H](C)O2)[C@H](C)[C@@H](O[C@@H]2O[C@H](C)C[C@H](N(C)C)[C@H]2O)[C@](C)(O)C[C@@H](C)N(C)C[C@H](C)C[C@]1(C)O
MIC (Streptococcus pyogenes [1]): 0.03 µg/mL (≈ 0.0409 µM)
MIC (Streptococcus pyogenes [2]): 16 µg/mL (≈ 21.8 µM)
MIC [3]: 0.25 µg/mL (≈ 0.341 µM)
MIC (Streptococcus pyogenes [4]): > 128 µg/mL
MIC (Staphylococcus aureus [5]): 2 µg/mL (≈ 2.73 µM)
MIC (Escherichia coli [6]): 4 µg/mL (≈ 5.46 µM)
MIC (Klebsiella pneumoniae [7]): 2 µg/mL (≈ 2.73 µM)
MIC (Enterococcus faecalis [8]): 4 µg/mL (≈ 5.46 µM)
MIC (Enterobacter cloacae [9]): 2 µg/mL (≈ 2.73 µM)
MIC (Haemophilus influenzae [10]): 4 µg/mL (≈ 5.46 µM)

CC[C@H]1OC(=O)[C@H](C)[C@@H](O[C@H]2C[C@@](C)(OC)[C@@H](O)[C@H](C)O2)[C@H](C)[C@@H](O[C@@H]2O[C@H](C)C[C@H](N(C)C)[C@H]2O)[C@](C)(O)C[C@@H](C)/N=C2\O[C@]1(C)C=C2C
MIC [11]: 8 µg/mL (≈ 11.2 µM)
MIC (Streptococcus pyogenes [12]): 1 µg/mL (≈ 1.4 µM)
MIC (Haemophilus influenzae [13]): 32 µg/mL (≈ 44.9 µM)
MIC (Klebsiella pneumoniae [14]): 64 µg/mL (≈ 89.8 µM)
MIC (Escherichia coli [15]): 64 µg/mL (≈ 89.8 µM)
MIC (Enterobacter cloacae [16]): 64 µg/mL (≈ 89.8 µM)
MIC (Staphylococcus aureus [17]): 16 µg/mL (≈ 22.4 µM)
MIC (Streptococcus pyogenes [4]): > 128 µg/mL
MIC (Streptococcus pyogenes [18]): > 128 µg/mL
MIC (Enterococcus faecalis [19]): 64 µg/mL (≈ 89.8 µM)

CC[C@H]1OC(=O)[C@H](C)[C@@H](O[C@H]2C[C@@](C)(OC)[C@@H](O)[C@H](C)O2)[C@H](C)[C@@H](O[C@@H]2O[C@H](C)C[C@H](N(C)C)[C@H]2O)[C@](C)(O)C[C@@H](C)N(C)C[C@@H](C)C[C@]1(C)O
MIC (Haemophilus influenzae [20]): 2 µg/mL (≈ 2.73 µM)
MIC (Enterobacter cloacae [21]): 2 µg/mL (≈ 2.73 µM)
MIC (Streptococcus pyogenes [1]): 0.03 µg/mL (≈ 0.0409 µM)
MIC (Escherichia coli [22]): 2 µg/mL (≈ 2.73 µM)
MIC (Streptococcus pyogenes [4]): > 128 µg/mL
MIC (Staphylococcus aureus [23]): 0.25 µg/mL (≈ 0.341 µM)
MIC (Klebsiella pneumoniae [7]): 2 µg/mL (≈ 2.73 µM)
MIC [24]: 0.125 µg/mL (≈ 0.171 µM)
MIC (Streptococcus pyogenes [25]): 8 µg/mL (≈ 10.9 µM)
MIC (Enterococcus faecalis [26]): 2 µg/mL (≈ 2.73 µM)

CC[C@H]1OC(=O)[C@H](C)[C@@H](O[C@H]2C[C@@](C)(OC)[C@@H](O)[C@H](C)O2)[C@H](C)[C@@H](O[C@@H]2O[C@H](C)C[C@H](N(C)C)[C@H]2O)[C@](C)(O)C[C@@H](C)N(C)C[C@H](C)[C@@H](O)[C@]1(C)O [L-701677]
MIC (Escherichia coli [27]): 1 µg/mL (≈ 1.34 µM)
MIC (Enterobacter cloacae [28]): 0.5 µg/mL (≈ 0.668 µM)
MIC (Staphylococcus aureus [29]): 0.5 µg/mL (≈ 0.668 µM)
MIC (Klebsiella pneumoniae [30]): 1 µg/mL (≈ 1.34 µM)
MIC (Streptococcus pyogenes [1]): 0.03 µg/mL (≈ 0.0401 µM)
MIC (Streptococcus pyogenes [4]): > 128 µg/mL
MIC (Haemophilus influenzae [31]): 1 µg/mL (≈ 1.34 µM)
MIC [24]: 0.125 µg/mL (≈ 0.167 µM)
MIC (Streptococcus pyogenes [25]): 8 µg/mL (≈ 10.7 µM)
MIC (Enterococcus faecalis [26]): 2 µg/mL (≈ 2.67 µM)

CC[C@H]1OC(=O)[C@H](C)[C@@H](O[C@H]2C[C@@](C)(OC)[C@@H](O)[C@H](C)O2)[C@H](C)[C@@H](O[C@@H]2O[C@H](C)C[C@H](N(C)C)[C@H]2O)[C@](C)(O)C[C@@H](C)N(C)C/C(C)=C/[C@]1(C)O
MIC (Staphylococcus aureus [32]): 2 µg/mL (≈ 2.74 µM)
MIC (Enterobacter cloacae [33]): 4 µg/mL (≈ 5.47 µM)
MIC (Streptococcus pyogenes [1]): 0.03 µg/mL (≈ 0.041 µM)
MIC [34]: 0.5 µg/mL (≈ 0.684 µM)
MIC (Klebsiella pneumoniae [35]): 8 µg/mL (≈ 10.9 µM)
MIC (Streptococcus pyogenes [4]): > 128 µg/mL
MIC (Enterococcus faecalis [8]): 4 µg/mL (≈ 5.47 µM)
MIC (Streptococcus pyogenes [25]): 8 µg/mL (≈ 10.9 µM)
MIC (Haemophilus influenzae [10]): 4 µg/mL (≈ 5.47 µM)
MIC (Escherichia coli [36]): 8 µg/mL (≈ 10.9 µM)

CC[C@H]1OC(=O)[C@H](C)[C@@H](O[C@H]2C[C@@](C)(OC)[C@@H](O)[C@H](C)O2)[C@H](C)[C@@H](O[C@@H]2O[C@H](C)C[C@H](N(C)C)[C@H]2O)[C@](C)(O)C[C@@H](C)C(=O)[C@H](C)[C@@H](O)[C@]1(C)O [ERYTHROMYCIN]
MIC (Staphylococcus aureus [37]): 0.25 µg/mL (≈ 0.341 µM)
MIC [38]: 0.125 µg/mL (≈ 0.17 µM)
MIC (Enterococcus faecalis [39]): 1 µg/mL (≈ 1.36 µM)
MIC (Escherichia coli [40]): 32 µg/mL (≈ 43.6 µM)
MIC (Enterobacter cloacae [41]): 32 µg/mL (≈ 43.6 µM)
MIC (Streptococcus pyogenes [1]): 0.03 µg/mL (≈ 0.0409 µM)
MIC (Streptococcus pyogenes [4]): > 128 µg/mL
MIC (Streptococcus pyogenes [18]): 32 µg/mL (≈ 43.6 µM)
MIC (Klebsiella pneumoniae [42]): 32 µg/mL (≈ 43.6 µM)
MIC (Haemophilus influenzae [10]): 4 µg/mL (≈ 5.45 µM)
